Results reported in ChEMBL document CHEMBL6078726, “Synthesis and in vitro evaluation of novel compounds and discovery of a promising iodine-125 radioligand for purinergic P2X7 receptor (P2X7R)” (Bioorg Med Chem, 2025).
The source made the active and inactive calls. The calls are words filed in the database; no cut-off is given here.

What was measured:
[1] = target: T1, P2X purinoceptor 7 (Homo sapiens) (UniProt Q99572); assay: Binding affinity to human P2X7 receptor expressed in HEK293 cell membrane assessed as inhibition of [125I]-4-(1-(1-(4-iodobenzoyl)piperidin-4-yl)-1H-imidazol-5-yl)phenyl isoquinoline-5-sulfonate binding to receptor at 1 uM incubated for 60 mins by high throughput screening relative to control; type: cell membranes
T1 sequence (whole entry): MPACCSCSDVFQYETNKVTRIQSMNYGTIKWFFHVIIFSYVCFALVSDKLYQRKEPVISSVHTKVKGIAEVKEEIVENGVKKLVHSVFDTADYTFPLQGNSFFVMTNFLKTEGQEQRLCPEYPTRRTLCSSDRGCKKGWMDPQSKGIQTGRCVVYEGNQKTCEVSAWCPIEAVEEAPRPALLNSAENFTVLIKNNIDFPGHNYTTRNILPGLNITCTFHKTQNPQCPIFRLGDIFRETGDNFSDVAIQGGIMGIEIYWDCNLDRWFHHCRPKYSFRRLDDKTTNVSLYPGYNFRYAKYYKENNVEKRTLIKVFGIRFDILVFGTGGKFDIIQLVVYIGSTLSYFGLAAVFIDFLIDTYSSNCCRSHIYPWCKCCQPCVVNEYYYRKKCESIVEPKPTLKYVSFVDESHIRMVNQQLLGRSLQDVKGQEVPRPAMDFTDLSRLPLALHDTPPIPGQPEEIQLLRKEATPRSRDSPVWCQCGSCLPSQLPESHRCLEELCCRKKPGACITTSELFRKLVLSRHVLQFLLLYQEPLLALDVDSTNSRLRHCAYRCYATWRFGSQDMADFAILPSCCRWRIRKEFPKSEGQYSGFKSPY

P2X purinoceptor 7 [2] = target: T2, P2X purinoceptor 7 (Homo sapiens, UniProt Q99572); assay: Antagonist activity at human P2X7 receptor expressed in HEK293 cells assessed as inhibition of BzATP-induced increase in fluorescence preincubated for 30 mins followed by BzATP addition and measured after 15 mins by YO-PRO-1 based inverted fluorescence microscopic analysis; type: cell-based
T2 sequence (Q99572 whole entry): T1 sequence (whole entry)

P2X purinoceptor 7 [3] = target: T2, P2X purinoceptor 7; assay: Binding affinity to human P2X7 receptor expressed in HEK293 cell membrane incubated for 60 mins in presence of [125I]-4-(1-(1-(4-iodobenzoyl)piperidin-4-yl)-1H-imidazol-5-yl)phenyl isoquinoline-5-sulfonate by competitive binding assay; type: cell membranes
[4] = target: T3, P2X purinoceptor 2 (Rattus norvegicus) (UniProt P49653); assay: Antagonist activity at rat P2X2 receptor expressed in HEK293 cells assessed as inhibition of BzATP-induced inward current at 1 uM by whole-cell voltage clamp method; type: cell-based
T3 sequence (whole entry): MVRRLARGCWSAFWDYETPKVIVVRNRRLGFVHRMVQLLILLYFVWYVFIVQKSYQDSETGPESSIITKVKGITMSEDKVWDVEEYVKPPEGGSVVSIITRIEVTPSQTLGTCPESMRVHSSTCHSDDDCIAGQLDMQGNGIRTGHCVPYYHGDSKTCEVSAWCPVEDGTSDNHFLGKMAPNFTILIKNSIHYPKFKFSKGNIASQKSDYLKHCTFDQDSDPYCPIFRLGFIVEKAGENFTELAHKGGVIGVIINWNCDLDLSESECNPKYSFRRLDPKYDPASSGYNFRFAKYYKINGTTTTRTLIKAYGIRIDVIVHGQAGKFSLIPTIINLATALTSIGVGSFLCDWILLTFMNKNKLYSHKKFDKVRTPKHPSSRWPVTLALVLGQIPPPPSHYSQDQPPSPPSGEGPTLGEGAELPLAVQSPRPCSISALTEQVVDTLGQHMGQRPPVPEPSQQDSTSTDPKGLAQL

[5] = target: T1, P2X purinoceptor 7 (Homo sapiens); assay: Antagonist activity at human P2X7 receptor expressed in HEK293 cells assessed as inhibition of BzATP-induced inward current at 300 nM preincubated with compound for 3 mins followed by BzATP addition and measured after 25 mins of washout by whole-cell voltage clamp method; type: cell-based; conditions: filed as antagonist, time 28.0 min
[6] = target: T1, P2X purinoceptor 7 (Homo sapiens); assay: Antagonist activity at human P2X7 receptor expressed in HEK293 cells assessed as inhibition of BzATP-induced increase in fluorescence at 1 uM preincubated for 30 mins followed by BzATP addition and measured after 15 mins by YO-PRO-1 based inverted fluorescence microscopic analysis; type: cell-based; conditions: filed as antagonist, time 45.0 min
[7] = target: T1, P2X purinoceptor 7 (Homo sapiens); assay: Antagonist activity at human P2X7 receptor expressed in HEK293 cells assessed as inhibition of BzATP-induced inward current at 300 nM preincubated with compound for 3 mins followed by BzATP addition by whole-cell voltage clamp method; type: cell-based; parameters: scale not given: the % may be the effect or the level left; conditions: filed as antagonist

| inhibition [1] [%] | IC50 (P2X purinoceptor 7 [2]) [nM] | Compound | also measured |
| --- | --- | --- | --- |
| < 35 | > 1000 | NCC(=O)Nc1ccc(Cl)c(C(=O)OCc2cccc3cnccc23)c1 |  |
| < 35 | > 1000 | O=C(OCc1cccc2cnccc12)c1cc(NC(=O)[C@H]2CCCN2)ccc1Cl |  |
| < 35 | > 1000 | COc1ccc(Cl)c(C(=O)NNC(=O)c2cccc3ncccc23)c1 |  |
|  |  | O=C(c1ccc(Br)cc1)N1CCC(n2cncc2-c2ccc(OS(=O)(=O)c3cccc4cnccc34)cc2)CC1 | inhibition ([1]; filed as antagonist): 71%; IC50 (P2X purinoceptor 7 [3]): 7.16 nM |
| < 35 | > 1000 | O=C1CNC(C(=O)Nc2ccc(Cl)c(C(=O)NCc3cccc4cnccc34)c2)CN1 (stereo unspecified) |  |
|  | 0.25 | O=C(c1ccc(I)cc1)N1CCC(n2cncc2-c2ccc(OS(=O)(=O)c3cccc4cnccc34)cc2)CC1 | Activity [4]: inactive; inhibition ([1]; filed as antagonist): 76%; Activity [5]: Active; Activity [6]: Active; Activity [7]: 100% |
| < 35 | > 1000 | COc1ccc(Cl)c(C(=O)NNC(=O)[C@H]2CC[C@H](C(F)(F)F)CC2)c1 |  |
|  |  | O=C(c1ccc([N+](=O)[O-])cc1)N1CCC(n2cncc2-c2ccc(OS(=O)(=O)c3cccc4cnccc34)cc2)CC1 | inhibition ([1]; filed as antagonist): 74%; IC50 (P2X purinoceptor 7 [3]): 7.91 nM |
| < 35 | > 1000 | CNCC(=O)Nc1ccc(Cl)c(C(=O)NCc2cccc3cnccc23)c1 |  |
| < 35 | > 1000 | COc1ccc(C(=O)Nc2ccc(Cl)c(C(=O)OCc3cccc4cnccc34)c2)nc1 |  |
| 45 |  | O=C(NCc1cccc(C(F)(F)F)c1Cl)[C@@H]1CCC(=O)N1C/C=C/I |  |
| < 35 | > 1000 | O=C(NCc1cccc2cnccc12)c1cc(O)ccc1Cl |  |
| < 35 | > 1000 | O=C(NCc1cccc2cnccc12)c1cc(OCCF)ccc1Cl |  |
| < 35 | > 1000 | COc1ccc(Cl)c(C(=O)NCc2cccc3cnccc23)c1 |  |
